{"source": "patent US9850207B2", "about": "“Substituted piperidines as soluble epdxide hydrolase inhibitors” (The Regents of the University of California, priority 2012, dated 2017)", "tested_on": "streptozocin (STZ)-induced type I diabetes model of neuropathic pain", "assay": "streptozocin (STZ)-induced type I diabetes model of neuropathic pain (von Frey mechanical withdrawal threshold)", "type": "in vivo", "conditions": "rats, 10 mpk, as compared to 10 mpk of celecoxib; average of 6 rats (FIG. 3)", "description": "Diabetic neuropathic pain was modeled using streptozocin which targets and kills the pancreatic beta islet cells rendering the animals with type I diabetes. The rats were acclimated for one hour and tested for baseline thresholds before inducing diabetes. The baseline mechanical withdrawal thresholds were established using the von Frey mechanical nociceptive test with an electronic anesthesiometer (IITC, Woodland Hills, Calif.). Subsequently, streptozocin (55 mg/kg) in saline was injected via tail vein per previously reported methods (Aley, K. O. and Levine J. D. J. Pain 2001, 2, 146.). After five days the allodynia of diabetic rats was confirmed with the von Frey nociceptive assay. Rats were placed in clear acrylic chambers on a steel mesh floor. The hind paw of the rat was probed through the mesh with a rigid tip probe connected to the electronic readout pressure meter set to the maximum hold setting. The withdrawal thresholds per rat were measured 3-5 times at 1 minute intervals for each time point.\nThe baseline diabetic allodynia was quantified again at the beginning of all test days. The rats were then administered vehicle or sEH inhibitor via oral gavage and tested at 30 min. 1, 2, 3, 4, 5, and 6 h for mechanical withdrawal thresholds. […]", "data": [{"smiles": "CC(=O)N1CCC(NC(=O)NC23CC4CC(CC(C4)C2)C3)CC1", "note": "[UC1153]", "values": [{"measurement": "pain response (% of baseline; below 60% of baseline is painful state, 100% is lack of enhanced pain detection)", "result": "significantly alleviate the pain response"}]}]}
